Values quoted from earlier work, collected in patent US20090239791A1, “PHARMACEUTICAL COMPOSITION CONTAINING LIPOPHILIC SUBSTANCE WHICH INHIBITS IL-2 PRODUCTION” (Astellas Pharma Inc., priority 2007, published 2009).

System: human mixed lymphocyte reaction
Details: Transplant Proceedings, No 5, Suppl 6, 36-39, 1987

C=CC[C@@H]1/C=C(\C)C[C@H](C)C[C@H](OC)C2O[C@@](O)(C(=O)C(=O)N3CCCC[C@H]3C(=O)O[C@H](/C(C)=C/[C@@H]3CC[C@@H](O)[C@H](OC)C3)[C@H](C)[C@@H](O)CC1=O)[C@H](C)C[C@@H]2OC (relative stereo) [Tacrolimus, [3S-[3R*[E(1S*,3S*,4S*)],4S*,5R*,8S*,9E,12R*,14R*,15S*,16R*,18S*,19S*,26aR*]]-5,6,8,11,12,13,14,15,16,17,18,19,24,25,26,26a-hexadecahydro-5,19-dihydroxy-3-[2-(4-hydroxy-3-methoxycyclohexyl)-1-methylethenyl]-14,16-dimethoxy-4,10,12,18-tetramethyl-8-(2-propenyl)-15,19-epoxy-3H-pyrido[2,1-c][1,4]oxaazacyclotricosine-1,7,20,21(4H,23H)-tetrone, monohydrate]
IC50 (a 50% inhibitory drug concentration in a human mixed lymphocyte reaction): 0.18 ng/mL
